pEC50: −log10 of the molar value.
Tests used:
[1] = Cytotoxicity against human HuH7 cells by tetrazolium dye method; assay type: cell-based, Huh-7
[2] = system: Hepatitis C virus; assay: Antiviral activity against HCV infected in HuH7 cells after 3 days by luciferase reporter gene assay; assay type: functional, organism-based, Hepacivirus hominis; details: Huh-7, 72 h

SMILES	pEC50 [2]	CC50 [1] [µM]
Cc1ncnc2c1ccn2[C@@H]1C=C(CO)[C@@H](O)[C@H]1O	< 4.00	> 100
Cc1ncnc2c1c(F)cn2[C@@H]1C=C(CO)[C@@H](O)[C@H]1O	< 4.00	> 100
Cc1ncnc2c1c(I)cn2[C@@H]1C=C(CO)[C@@H](O)[C@H]1O	4.34	> 100
C#Cc1cn([C@@H]2C=C(CO)[C@@H](O)[C@H]2O)c2ncnc(C)c12	4.17	> 100

Stronger by pEC50 [2], values ahead:

pEC50 [2]	SMILES	CC50 [1] [µM]
4.38	Cc1ncnc2c1c(Cl)cn2[C@@H]1C=C(CO)[C@@H](O)[C@H]1O	> 100
4.43	Cc1ncnc2c1c(Br)cn2[C@@H]1C=C(CO)[C@@H](O)[C@H]1O	> 100
4.55	C=Cc1cn([C@@H]2C=C(CO)[C@@H](O)[C@H]2O)c2ncnc(C)c12	52.8
6.77	CCCCn1c(=O)c2cc(OC)ccc2c2cc(C(O)(C(F)(F)F)C(F)(F)F)c(OC)cc21	> 10

Reference: ChEMBL document CHEMBL2202987, “Structure based medicinal chemistry approach to develop 4-methyl-7-deazaadenine carbocyclic nucleosides as anti-HCV agent” (Bioorg Med Chem Lett, 2012)
